Counter-ions that a name gives are not always drawn. ± gives the standard deviation of the averaged measurements.
Tested on: KHOS-NP
Assay: relative viability vs DMSO control (72 h) (fraction); higher = more viable cells
How it was run: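 Percent growth from ATPLite readings, averaged over up to triplicate wells, was used as relative viability. Sarcoma cell lines were seeded into 384-well plates for 80–90% confluence, dosed after 24 h, and kept 72 h at 37 °C, 5% CO2. Data were rescaled to a range where 1 is full and 0 is none.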

SMILES	relative viability (0.00017 µM)	relative viability (0.00051 µM)	relative viability (0.00152 µM)	relative viability (0.00457 µM)	relative viability (0.01372 µM)	relative viability (0.04115 µM)	relative viability (0.1235 µM)	relative viability (0.3704 µM)	relative viability (1.111 µM)	relative viability (3.333 µM)	relative viability (10 µM)
CNC(=O)c1cc(Oc2ccc(NC(=O)Nc3ccc(Cl)c(C(F)(F)F)c3)c(F)c2)ccn1 [Regorafenib]	1.09 ± 0.013	1.11 ± 0.012	1.12 ± 0.019	1.12 ± 0.013	1.112 ± 0.0027	1.1 ± 0.016	0.787 ± 0.57	1.07 ± 0.018	0.938 ± 0.055	0.569 ± 0.014	0.238 ± 0.083
Cc1ccc(NC(=O)c2ccc(CN3CCN(C)CC3)cc2)cc1Nc1nc(-c2cccnc2)cs1 [Masitinib]	1.05 ± 0.026	1.05 ± 0.035	1.089 ± 0.0014	1.083 ± 0.01	1.06 ± 0.028	1.09 ± 0.025	1.04 ± 0.052	1.01 ± 0.024	0.857 ± 0.018	0.612 ± 0.051	0.185 ± 0.0074
CNC(=O)c1ccc(-c2cnc3ncc(Cc4ccc5ncccc5c4)n3n2)cc1F [Capmatinib]	1.1 ± 0.021	1.08 ± 0.016	1.098 ± 0.0065	1.06 ± 0.023	1.094 ± 0.0089	1.1 ± 0.032	1.09 ± 0.021	1.07 ± 0.035	1.09 ± 0.023	1.09 ± 0.021	1.09 ± 0.026
CCCS(=O)(=O)Nc1ccc(F)c(C(=O)c2c[nH]c3ncc(-c4ccc(Cl)cc4)cc23)c1F [Vemurafenib]	1.08 ± 0.029	1.074 ± 0.0078	1.08 ± 0.032	1.09 ± 0.017	1.09 ± 0.025	1.08 ± 0.023	1.09 ± 0.03	1.08 ± 0.03	1.07 ± 0.034	1.06 ± 0.018	0.601 ± 0.031
Cc1ccc(F)c(NC(=O)Nc2ccc(-c3cccc4[nH]nc(N)c34)cc2)c1 [Linifanib]	1.1 ± 0.012	1.1 ± 0.016	1.09 ± 0.027	1.09 ± 0.024	1.05 ± 0.016	1.07 ± 0.015	1.052 ± 0.0063	1.05 ± 0.039	1.03 ± 0.037	0.968 ± 0.019	1.01 ± 0.059
CC(C)N1CCN(Cc2cnc(-c3cc(-c4cccc5[nH]ccc45)cc4[nH]ncc34)o2)CC1 [Nemiralisib]	1.01 ± 0.024	1.02 ± 0.024	1.02 ± 0.029	1.01 ± 0.03	1.01 ± 0.026	1.02 ± 0.013	1.02 ± 0.021	1.03 ± 0.018	1.04 ± 0.038	1.03 ± 0.038	1.01 ± 0.034
COCc1c(-c2cc3cc(C)cc(OC)c3s2)c2c(N)ncnn2c1CN1CCNC(=O)C1 [Rogaratinib]	1.09 ± 0.019	1.1 ± 0.014	1.08 ± 0.012	1.09 ± 0.0024	1.08 ± 0.032	1.06 ± 0.016	1.06 ± 0.018	1.06 ± 0.017	1.09 ± 0.023	1.04 ± 0.09	0.877 ± 0.031
Cc1cc(Nc2ncnc3ccc(NC4=NC(C)(C)CO4)cc23)ccc1Oc1ccn2ncnc2c1 [Tucatinib]	1.09 ± 0.023	1.14 ± 0.021	1.13 ± 0.014	1.11 ± 0.029	1.09 ± 0.018	1.09 ± 0.025	1.12 ± 0.017	1.1 ± 0.017	1.12 ± 0.016	1.09 ± 0.02	1.11 ± 0.014
O=C(Nc1cnn2ccc(N3CCC[C@@H]3c3cc(F)ccc3F)nc12)N1CC[C@H](O)C1 [Larotrectinib]	1.1 ± 0.025	1.09 ± 0.013	1.08 ± 0.016	1.09 ± 0.024	1.1 ± 0.016	1.06 ± 0.03	1.05 ± 0.053	1.08 ± 0.021	1.05 ± 0.027	1.02 ± 0.014	1.01 ± 0.038
CN1CCC(COc2cnc(-c3cccc(Cn4nc(-c5cccc(C#N)c5)ccc4=O)c3)nc2)CC1 [Tepotinib]	1.09 ± 0.054	1.11 ± 0.024	1.11 ± 0.012	1.09 ± 0.013	1.08 ± 0.012	1.08 ± 0.026	1.07 ± 0.015	1.03 ± 0.023	1.01 ± 0.023	0.995 ± 0.021	0.975 ± 0.014
C[C@@H]1CCN(C(=O)CC#N)C[C@@H]1N(C)c1ncnc2[nH]ccc12 [Tofacitinib]	1.08 ± 0.037	1.092 ± 0.01	1.08 ± 0.031	1.09 ± 0.036	1.05 ± 0.034	1.07 ± 0.053	1.06 ± 0.049	1.05 ± 0.029	1.03 ± 0.011	1.02 ± 0.051	0.941 ± 0.015
N#CC[C@H](C1CCCC1)n1cc(-c2ncnc3[nH]ccc23)cn1 [Ruxolitinib]	1.04 ± 0.024	1.04 ± 0.028	1.05 ± 0.03	1.03 ± 0.036	1.02 ± 0.033	1.03 ± 0.038	1.015 ± 0.0094	0.995 ± 0.062	0.988 ± 0.044	0.9816 ± 0.0032	0.809 ± 0.031
C=CC(=O)N1CCC[C@@H](n2nc(-c3ccc(Oc4ccccc4)cc3)c3c(N)ncnc32)C1 [Ibrutinib]	1.08 ± 0.025	1.086 ± 0.0071	1.08 ± 0.025	1.07 ± 0.013	1.05 ± 0.032	1.04 ± 0.014	1.05 ± 0.015	1.01 ± 0.045	1.034 ± 0.01	1.03 ± 0.043	0.995 ± 0.043
COc1c(OCCCN2CCOCC2)ccc2c1N=C(NC(=O)c1cnc(N)nc1)N1CCN=C21 [Copanlisib]	1.1 ± 0.042	1.1 ± 0.029	1.11 ± 0.015	1.088 ± 0.0075	1.075 ± 0.01	1.04 ± 0.029	1.003 ± 0.01	0.907 ± 0.021	0.523 ± 0.014	0.198 ± 0.0088	0.146 ± 0.011
COc1cccc2c1C(=O)c1c(O)c3c(c(O)c1C2=O)C[C@@](O)(C(=O)CO)C[C@@H]3O[C@H]1C[C@H](N)[C@H](O)[C@H](C)O1 [Doxorubicin Hydrochloride]	1.09 ± 0.024	1.08 ± 0.04	1.07 ± 0.042	1.07 ± 0.0061	1.02 ± 0.062	1.04 ± 0.033	0.814 ± 0.038	0.475 ± 0.029	0.266 ± 0.014	0.0899 ± 0.0038	0.058 ± 0.0052

Reference: the supplement of paper PMC10883282
